Results on 15 compounds are retold here after patent US9012446B2, “Amino-oxazines and amino-dihydrothiazine compounds as beta-secretase modulators and methods of use” (Amgen Inc., priority 2010, dated 2015).

pIC50: −log10 of the molar value. Read-outs that look alike come from different tables or passages of the source.

The target of experiment [1] is BACE (Homo sapiens, UniProt P56817). As to the kind of experiment: In vitro enzymatic BACE FRET assay. The class given is biochemical. As to conditions: average IC50, enzyme assay; read-out: BACE 1 FRET assay. The essentials: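 BACE (0.2 nM) preincubated 1 h with serially diluted inhibitors in 0.05 M acetate pH 4.2, 10% DMSO, 100 uM genapol. FRET peptide substrate (50 nM) added, 1 h incubation, then stopped with Tris to neutral pH. Fluorescence from cleavage read at […].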

Experiment [2] deals with Abeta 40. The experiment in a line: In vivo inhibition of beta-secretase: Abeta 40 reduction in CSF and brain of the rat. Particulars: after 4 hrs; for inhibition in vivo at 10 mg/kg: 10 mpk. The text has this:
In Vivo Inhibition of Beta-Secretase
Several animal models, including mouse, rat, dog, and monkey, may be used to screen for inhibition of beta-secretase activity in vivo following administration of a test compound sample. Animals used in this invention can be wild type, transgenic, or gene knockout animals. For example, the Tg2576 mouse model, prepared and conducted as described in Hsiao et al., 1996, Science 274, 99-102, and other non-transgenic or gene knockout animals are useful to analyze in vivo inhibition of Amyloid beta peptide (Abeta) production in the presence of inhibitory test compounds. Generally, 2 to 18 month old Tg2576 mice, gene knockout mice or non-transgenic animals are administered test compounds formulated in vehicles, such as cyclodextran, phosphate buffers, hydroxypropyl methylcellulose or other suitable vehicles. One to twenty-four hours following the administration of compound, animals are sacrificed, and brains as well as cerebrospinal fluid (CSF) and plasma are removed for analysis of A-beta levels and drug or test compound concentrations (Dovey et al., 2001, Journal of Neurochemistry, 76,173-181) Beginning at time 0, animals are administered by oral gavage, or other means of delivery such as intravenous injection, an inhibitory test compound of up to 100 mg/kg in a standard, conventional formulation, such as 2% hydroxypropyl methylcellulose, 1% Tween80. A separate group of animals receive 2% hydroxypropyl methylcellulose, 1% Tween80 alone, containing no test compound, and serve as a vehicle-control group. At the end of the test period, animals are sacrificed and brain tissues, plasma or cerebrospinal fluid are collected. Brains are either homogenized in 10 volumes (w/v) of 0.2% diethylamine (DEA) in 50 mM NaCl (Best et al., 2005, Journal of Pharmacology and Experimental Therapeutics, 313, 902-908), or in 10 volumes of 0.5% TritonX-100 in Tris-buffered saline (pH at about 7.6). Homogenates are centrifuged at 355,000 g, 4° C. for 30 minutes. CSF or brain supernatants are then analyzed for the presence of A-beta peptide by specific sandwich ELISA assays based on ECL (Electrochemiluminescence) technology. For example, rat Abeta40 is measured using biotinylated-4G8 (Signet) as a capture antibody and Fab40 (an in-house antibody specific to the C-terminal of Abeta40) as a detection antibody. For example, 4 hours after administration of 30 mg/kg oral dose of the test compound in 2% hydroxypropyl methylcellulose, 1% Tween80 (pH2.2) to 200 g male Sprague Dawley rats, amyloid beta peptide levels are measured for reduction by X % and Y % in cerebrospinal fluid and brain, respectively, when compared to the levels measured in the vehicle-treated rats. • Actual vehicles used: Oral: 2% HPMC, 1% Tween80, pH 2.2 • IV: 5% EtOH, 45% Propylene glycol in 5% Dextrose
The compounds of the invention may be shown to reduce the formation and/or deposition of amyloid beta peptide in the cerebrospinal fluid (CSF) as well as in the brain of a mouse or rat at either 3 mpk, 10 mpk or 30 mpk (mpk=mg compound per kg weight of the animal) dosing concentrations after 4 hrs.

Experiment [3] concerns Aβ40. As to the kind of experiment: In vitro BACE cell-based assay (Aβ40 sandwich ELISA, cells stably expressing APP). As to conditions: Homo sapiens, HEK293, average IC50, cell assay, HEK cells. In short, it runs like this: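 APP-stably-expressing cells, grown 24 h in DMEM/10% FBS, received 10-point compound doses starting at 100 μM or 10 μM (0.1% DMSO final). Secreted Aβ40 in supernatants measured by sandwich ELISA with time-resolved europium fluorescence; IC50 from percent inhibition versus concentration.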

Setting [4] is: Abeta 40, rat CSF, read-out: % reduction of rat CSF levels at 10 pmk.
[5] abbreviates: Abeta 40, rat brain, read-out: % reduction of rat brain levels at 10 mpk.

Sequence of BACE (P56817 46-501, species assumed): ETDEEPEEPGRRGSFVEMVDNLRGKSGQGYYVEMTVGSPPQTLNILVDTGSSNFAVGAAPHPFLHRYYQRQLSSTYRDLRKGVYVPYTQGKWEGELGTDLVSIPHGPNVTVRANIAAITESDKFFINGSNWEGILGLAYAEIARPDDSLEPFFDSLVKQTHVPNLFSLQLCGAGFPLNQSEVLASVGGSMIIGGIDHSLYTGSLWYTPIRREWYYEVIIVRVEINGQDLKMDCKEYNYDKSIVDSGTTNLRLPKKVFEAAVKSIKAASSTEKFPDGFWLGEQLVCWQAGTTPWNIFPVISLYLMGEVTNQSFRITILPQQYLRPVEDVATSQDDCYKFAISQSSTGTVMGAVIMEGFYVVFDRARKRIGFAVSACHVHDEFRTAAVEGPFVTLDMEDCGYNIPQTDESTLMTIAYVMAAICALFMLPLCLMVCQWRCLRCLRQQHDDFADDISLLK

As to `NC1=N[C@@]2(COC1)c1cc(-c3cccnc3F)ccc1Oc1cnc(-c3ccc(F)c(F)c3)cc12` [Example 73, (5S)-3-(3,4-difluorophenyl)-7-(2-fluoro-3-pyridinyl)-6′H-spiro[chromeno[2,3-c]pyridine-5,3′-[1,4]oxazin]-5′-amine], the pIC50 in experiment [1] was 9.52; in experiment [3], 8.57. Further, the inhibition in vivo at 10 mg/kg came to 62% in experiment [2] (setting [4]) and 42% in experiment [2] (setting [5]).

Regarding `NC1=N[C@@]2(COC1)c1cc(-c3cccnc3F)ccc1Oc1cnc(N3CCC(F)(F)C3)cc12` [Example 74, (5S)-3-(3,3-difluoro-1-pyrrolidinyl)-7-(2-fluoro-3-pyridinyl)-6′H-spiro[chromeno[2,3-c]pyridine-5,3′-[1,4]oxazin]-5′-amine], the pIC50 is 9.40 in experiment [1] and 9.10 in experiment [3]. Further, the figures for the inhibition in vivo at 10 mg/kg in experiment [2] (setting [4]) and in experiment [2] (setting [5]) were 47% and 26%, respectively.

As for `CC(C)(C)C#Cc1cnc2c(c1)[C@]1(COCC(N)=N1)c1cc(-c3cccnc3F)ccc1O2` [Example 89, (S)-3-(3,3-dimethylbut-1-yn-1-yl)-7-(2-fluoropyridin-3-yl)-2′,6′-dihydrospiro[chromeno[2,3-b]pyridine-5,3′-[1,4]oxazin]-5′-amine], the pIC50 in experiment [1] is 9.15; in experiment [3], 9.40. In addition, the values for the inhibition in vivo at 10 mg/kg in experiment [2] (setting [4]) and in experiment [2] (setting [5]) were 50% and 41%, respectively.

Take `Cc1ccc(-c2cnc3c(c2)[C@]2(COCC(N)=N2)c2cc(-c4cccnc4F)ccc2O3)cc1` [Example 90, (S)-7-(2-fluoropyridin-3-yl)-3-(p-tolyl)-2′,6′-dihydrospiro[chromeno[2,3-b]pyridine-5,3′-[1,4]oxazin]-5′-amine]: the pIC50 in experiment [1] is 9.22; in experiment [3], 8.92. Further, the “% reduction of rat CSF levels” value in experiment [2] (Abeta 40, rat CSF) turned out to be 7% at 3 mpk. In addition, the “% reduction of rat brain levels” value in experiment [2] (Abeta 40, rat brain) is given as 0% at 3 mpk.

With `NC1=N[C@@]2(COC1)c1cc(-c3cccnc3F)ccc1Oc1ncc(-c3ccc(F)cc3)cc12` [Example 91, (S)-3-(4-fluorophenyl)-7-(2-fluoropyridin-3-yl)-2′,6′-dihydrospiro[chromeno[2,3-b]pyridine-5,3′-[1,4]oxazin]-5′-amine], the pIC50 in experiment [1] was 9.30; in experiment [3] it was 9.15. Besides, the inhibition in vivo at 10 mg/kg in experiment [2] (setting [4]) was determined as 29%; in experiment [2] (setting [5]), 3%.

On to `NC1=N[C@@]2(CCO1)c1cc(-c3cccnc3F)ccc1Oc1c2cc(-c2ccnc(F)c2)nc1F` [Example 107, (S)-1-fluoro-7-(2-fluoropyridin-3-yl)-3-(2-fluoropyridin-4-yl)-5′,6′-dihydrospiro[chromeno[2,3-c]pyridine-5,4′-[1,3]oxazin]-2′-amine], for which the pIC50 in experiment [1] was 9.30; in experiment [3] it was 8.74. The figures for the inhibition in vivo at 10 mg/kg in experiment [2] (setting [4]) and in experiment [2] (setting [5]) were 82% and 72%, respectively.

In the case of `NC1=N[C@@]2(CCO1)c1cc(-c3cccnc3F)ccc1Oc1c2cc(C2=CCCOC2)nc1F` [Example 110, (S)-3-(5,6-dihydro-2H-pyran-3-yl)-1-fluoro-7-(2-fluoropyridin-3-yl)-5′,6′-dihydrospiro[chromeno[2,3-c]pyridine-5,4′-[1,3]oxazin]-2′-amine], the pIC50 in experiment [1] and in experiment [3] was 9.30 throughout. The inhibition in vivo at 10 mg/kg in experiment [2] (setting [4]) came to 86%; in experiment [2] (setting [5]), 79%.

Take `NC1=N[C@@]2(CCO1)c1cc(-c3cccnc3F)ccc1Oc1cnc(C3=CCOCC3)cc12` [Example 111, (5S)-3-(3,6-dihydro-2H-pyran-4-yl)-7-(2-fluoro-3-pyridinyl)-5′,6′-dihydrospiro[chromeno[2,3-c]pyridine-5,4′-[1,3]oxazin]-2′-amine]: the pIC50 in experiment [1] was 8.74; in experiment [3], 8.68. The inhibition in vivo at 10 mg/kg in experiment [2] (setting [4]) worked out at 81%; in experiment [2] (setting [5]), 67%.

With `NC1=N[C@@]2(COC1)c1cc(-c3cncc(F)c3)ccc1Oc1cnc(-c3ccc(F)c(F)c3)cc12` [Example 114, (S)-3-(3,4-difluorophenyl)-7-(5-fluoropyridin-3-yl)-2′,6′-dihydrospiro[chromeno[2,3-c]pyridine-5,3′-[1,4]oxazin]-5′-amine], the values for the pIC50 in experiment [1] and in experiment [3] were 9.40 and 8.64, respectively. In addition, the inhibition in vivo at 10 mg/kg in experiment [2] (setting [4]) stood at 54%; in experiment [2] (setting [5]) it was 34%.

With `NC1=N[C@@]2(COC1)c1cc(-c3cccnc3)ccc1Oc1cnc(-c3ccc(F)c(F)c3)cc12` [Example 115, (S)-3-(3,4-difluorophenyl)-7-(pyridin-3-yl)-2′,6′-dihydrospiro[chromeno[2,3-c]pyridine-5,3′-[1,4]oxazin]-5′-amine], the pIC50 in experiment [1] was 9.40; in experiment [3], 8.80. Besides, the inhibition in vivo at 10 mg/kg in experiment [2] (setting [4]) was 38%; in experiment [2] (setting [5]) it was 21%.

Regarding `CC(C)(C)COc1cc2c(cn1)Oc1ccc(-c3cccnc3)cc1[C@@]21COCC(N)=N1` [Example 119, (S)-3-(neopentyloxy)-7-(pyridin-3-yl)-2′,6′-dihydrospiro[chromeno[2,3-c]pyridine-5,3′-[1,4]oxazin]-5′-amine], the pIC50 in experiment [1] is 9.22; in experiment [3] it was 9.40. Also, in experiment [2] (Abeta 40, rat CSF), the “% reduction of rat CSF levels” value came out at 5% at 3 mpk. Moreover, in experiment [2] (Abeta 40, rat brain), the “% reduction of rat brain levels” value is listed as 6% at 3 mpk.

As to `CC(C)(C)COc1cc2c(cn1)Oc1ccc(-c3cncc(F)c3)cc1[C@@]21COCC(N)=N1` [Example 120, (S)-7-(5-fluoropyridin-3-yl)-3-(neopentyloxy)-2′,6′-dihydrospiro[chromeno[2,3-c]pyridine-5,3′-[1,4]oxazin]-5′-amine], the results for the pIC50 in experiment [1] and in experiment [3] were 9.22 and 9.15, respectively. Moreover, the “% reduction of rat CSF levels” value in experiment [2] (Abeta 40, rat CSF) is recorded as 30% at 3 mpk. In experiment [2] (Abeta 40, rat brain), the “% reduction of rat brain levels” value worked out at 24% at 3 mpk.

Regarding `NC1=N[C@@]2(COC1)c1cc(-c3cncc(F)c3)ccc1Oc1cnc(N3CCC(F)(F)C3)cc12` [Example 122, (S)-3-(3,3-difluoropyrrolidin-1-yl)-7-(5-fluoropyridin-3-yl)-2′,6′-dihydrospiro[chromeno[2,3-c]pyridine-5,3′-[1,4]oxazin]-5′-amine], the pIC50 was 9.22 in experiment [1] and 9.52 in experiment [3]. The “% reduction of rat CSF levels” value in experiment [2] (Abeta 40, rat CSF) is given as 11% at 3 mpk. Besides, in experiment [2] (Abeta 40, rat brain), the “% reduction of rat brain levels” value came out at 14% at 3 mpk.

Consider `CC(C)(C#N)COc1cc2c(cn1)Oc1ccc(-c3cccc(F)c3)cc1[C@@]21COCC(N)=N1` [Example 126, (S)-3-(5′-amino-7-(3-fluorophenyl)-2′,6′-dihydrospiro[chromeno[2,3-c]pyridine-5,3′-[1,4]oxazine]-3-yloxy)-2,2-dimethylpropanenitrile], for which the values for the pIC50 in experiment [1] and in experiment [3] were 9.40 and 8.82, respectively. The inhibition in vivo at 10 mg/kg came out at 25% in experiment [2] (setting [4]) and 8% in experiment [2] (setting [5]).

For the compound `NC1=N[C@@]2(COC1)c1cc(-c3cccnc3F)ccc1Oc1c2cc(N2CCC(F)(F)CC2)nc1F` [Example 129, (S)-3-(4,4-difluoropiperidin-1-yl)-1-fluoro-7-(2-fluoropyridin-3-yl)-2′,6′-dihydrospiro[chromeno[2,3-c]pyridine-5,3′-[1,4]oxazin]-5′-amine 2,2,2-trifluoroacetate], the pIC50 in experiment [1] was 9.05; in experiment [3], 8.31. For the same compound, the inhibition in vivo at 10 mg/kg in experiment [2] (setting [4]) was found to be 22%; in experiment [2] (setting [5]), 17%.
